Literature values as cited in patent US5668134A, “Method for preventing or reducing photosensitivity and/or phototoxicity reactions to medications” (priority 1994, dated 1997).
Where two headings read alike, the source gives them in different places.

System: skin
Details: cited from earlier work

CNC1=Nc2ccc(Cl)cc2C(c2ccccc2)=[N+]([O-])C1 [Chlordiazepoxide]
Action Spectrum (Table 1): 290-360 nm | Type of Photoreaction (Table 1): Photoallergic

CN(C)N=Nc1[nH]cnc1C(N)=O [DTIC]
Type of Photoreaction (Table 1): Phototoxic

C=C[C@H]1C[N@@]2CC[C@H]1C[C@@H]2[C@@H](O)c1ccnc2ccc(OC)cc12 [Quinidine]
Type of Photoreaction (Table 1): Photoallergic | Action Spectrum: 320-400 nm

CCCNC(=O)NS(=O)(=O)c1ccc(Cl)cc1 [chlorpropamide]
Action Spectrum: 290-360 nm

O=c1[nH]cc(F)c(=O)[nH]1 [fluorouracil, 5-fluoro-2,4 (1H,3H)-pyrimidinedione]
Type of Photoreaction (Table 1): Phototoxic

COC1=CC(=O)C[C@@H](C)[C@]12Oc1c(Cl)c(OC)cc(OC)c1C2=O [griseofulvin]
Action Spectrum: 320-400 nm

CN(Cc1cnc2nc(N)nc(N)c2n1)c1ccc(C(=O)N[C@@H](CCC(=O)O)C(=O)O)cc1 [methotrexate]
Type of Photoreaction (Table 1): Phototoxic

CCn1cc(C(=O)O)c(=O)c2ccc(C)nc21 [nalidixic acid]
Action Spectrum (Table 1): 320-400 nm

C=C[C@H]1C[N@@]2CC[C@H]1C[C@H]2[C@H](O)c1ccnc2ccc(OC)cc12 [quinine]
Type of Photoreaction (Table 1): Photoallergic | Action Spectrum: 320-400 nm

CCCCNC(=O)NS(=O)(=O)c1ccc(C)cc1 [tolbutamide]
Action Spectrum (Table 1): 290-360 nm

CC[C@]1(O)C[C@@H]2CN(CCc3c([nH]c4ccccc34)[C@@](C(=O)OC)(c3cc4c(cc3OC)N(C)[C@H]3[C@@](O)(C(=O)OC)[C@H](OC(C)=O)[C@]5(CC)C=CCN6CC[C@]43[C@@H]65)C2)C1 [vinblastine]
Type of Photoreaction (Table 1): Phototoxic
